From ChEMBL document CHEMBL4602734, “Hybrid Screening Approach for Very Small Fragments: X-ray and Computational Screening on FKBP51” (J Med Chem, 2020) come the findings set out here.

By Kd is commonly meant the free concentration of one partner at which half of the binding sites on the other are occupied at equilibrium, for simple one-to-one binding. The low end stands for higher affinity, the high end for lower affinity.

Each structure is given as a SMILES string. Activity calls are given as the source filed them. No cut-off for these calls is given here.

Assay [1] has as its target T1, Peptidyl-prolyl cis-trans isomerase FKBP5 (Homo sapiens) (UniProt Q13451).
T1 sequence (whole entry): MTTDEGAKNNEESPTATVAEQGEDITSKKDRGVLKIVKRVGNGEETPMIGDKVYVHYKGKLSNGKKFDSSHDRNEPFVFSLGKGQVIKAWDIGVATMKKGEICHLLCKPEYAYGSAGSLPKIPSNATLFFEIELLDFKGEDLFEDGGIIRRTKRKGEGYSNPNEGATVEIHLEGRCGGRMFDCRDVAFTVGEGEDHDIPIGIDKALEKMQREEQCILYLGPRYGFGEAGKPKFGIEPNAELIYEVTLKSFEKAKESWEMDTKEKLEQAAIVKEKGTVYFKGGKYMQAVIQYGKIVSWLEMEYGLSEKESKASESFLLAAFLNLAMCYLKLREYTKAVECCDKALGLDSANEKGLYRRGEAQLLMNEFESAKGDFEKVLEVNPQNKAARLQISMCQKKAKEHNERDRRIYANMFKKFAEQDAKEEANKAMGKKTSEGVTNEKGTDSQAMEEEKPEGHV
Nature of the assay: Binding affinity to 15N-labeled FKBP51 (1 to 140 residues) (unknown origin) expressed in Escherichia coli OD2N assessed as induction of chemical shift perturbations at Ile87 residues by two-dimensional 1H/15N HSQC NMR spectroscopy.

In assay [2] the target is T2, Peptidyl-prolyl cis-trans isomerase FKBP5 (Homo sapiens, UniProt Q13451).
T2 sequence (Q13451 whole entry): T1 sequence (whole entry)
Nature of the assay: Binding affinity to 15N-labeled FKBP51 (1 to 140 residues) (unknown origin) expressed in Escherichia coli OD2N by two-dimensional 1H/15N HSQC NMR spectroscopy.

Assay [3] has as its target T1, Peptidyl-prolyl cis-trans isomerase FKBP5 (Homo sapiens). Nature of the assay: Binding affinity to 15N-labeled FKBP51 (1 to 140 residues) (unknown origin) expressed in Escherichia coli OD2N assessed as induction of chemical shift perturbations at Leu81, Gly82, Gln85, Ile87, Ala89, Trp90, Asp91, Met97, and Glu110 residues by two-dimensional 1H/15N HSQC NMR spectroscopy.

Assay [4] shares this target. Nature of the assay: Binding affinity to 15N-labeled FKBP51 (1 to 140 residues) (unknown origin) expressed in Escherichia coli OD2N assessed as induction of chemical shift perturbations by two-dimensional 1H/15N HSQC NMR spectroscopy.

On to `Oc1ccccn1`, for which the outcome in assay [1] was Active. The compound also displayed a Kd in assay [2] of 1300 µM.
In the case of `O=C1CCCCN1`, the result in assay [3] was Active. The same compound showed a Kd in assay [2] of 2800 µM.
On to `c1c[nH]cn1` [IMIDAZOLE], for which, in assay [1], the outcome was Active. Moreover, the Kd in assay [2] amounted to 4400 µM.
For the compound `NC(=O)c1cccnc1`, in assay [4], the outcome was inactive.
Same read-out and setting: for `O=C1CNC(=O)N1` the value was “inactive”.
In the case of `Cc1c[nH]cn1`, the outcome in assay [1] was Active. In addition, the Kd in assay [2] worked out at 2900 µM.
